From patent publication US9592305B2, “Compositions of jasmonate compounds and methods of use” (Nanocare Technologies, Inc., priority 2011, dated 2017)

What was measured:
CAM blood vessels = conditions: in vivo
Description: For the tests with eggs, egg whites were used Gallus gallus incubated in a thermostated incubator at controlled temperature and humidity. The incubation was performed with and without eggs lying giragem. A mark on the upper surface of the bark was used to control this procedure. The eggs were opened on the fourth day of incubation, after careful cleaning of the skin with cotton wool soaked in 70% alcohol. The opening was performed in laminar flow, keeping all your eggs in the same position in which they were hatched, supported on a plastic holder and marked on the upper surface. The experimental procedure was adapted and refined for the project, drawing on the first half of the twentieth century. The description of the method developed
After the opening and closing of windows all eggs were replaced in the incubator, with the same initial conditions and maintained for a further seven days, typically. […]
After brief fixation, the hull was breached and the embryo inert placed on a petri dish. […] In each trial, the image was captured from the fund, kept the lighting and color adjustments in order to standardize the images of the analyzed material. […]
Each region of the same sample was imaged in bright field and dark field, for better observation of details. The growth of the vascular network was analyzed with the program Image J by processing the images in bright field binary images. […]

B16F10 murine melanoma = assay: CAM model inoculated with B16F10 murine melanoma; assay type: in vivo
Description: After the opening and closing of windows all eggs were replaced in the incubator, with the same initial conditions and maintained for a further seven days, typically. In this interval procedures were carried out for tests of angiogenesis or for research on tumor growth in vivo. The observation of angiogenesis in eggs inoculated with tumor cells followed virtually the same test model of angiogenesis. Exposure to pure MDJ (cis/trans 96% pure from Sigma) or cyclodextrin-carried MDJ made in Example 3 above was performed on day 8, with the remaining eggs in the incubator until day 14. The inoculation with the melanoma cells was performed on day 4, eggs received MDJ pure or cyclodextrin-carried MDJ on the 8th day and remained incubated up to 14 days. During the development of the protocol, the time of inoculation and treatment were adjusted. Care during the collection and to obtain the images were standardized for all experiments.
The typical inoculum was 2×10^4 cells per egg, in a volume of culture medium less than […]. Melamona growth was accompanied by visual inspection of pigmented mass formation on the CAM, the magnifying glass and microscope. […]
Eggs used were measured by sampling and the average volume of 60 mL was maintained throughout the period of testing with a standard deviation below 10%. […] The tests of viability were monitored for up to 10 days. […]

[1] = test system: B16F10 murine melanoma cells; assay: MTT cytotoxicity and growth curves in murine melanoma cells; assay type: cell-based; conditions: cultures of murine melanoma
HUVEC [2] = assay: Cell cycle by flow cytometry (propidium iodide, acridine orange) in HUVEC; assay type: cell-based, human
Description: FIG. 13: Effect of MDJ on the cell cycle in HUVEC after 18 h of exposure in vitro. The concentrations used in each test are shown in graphics measures cell cycle were performed on a BD FACScalibur equipment, after labeling with propidium iodide simple. The staining with acridine orange served as a control of the process of apoptosis.
(§1) Cell lines used: non-neoplastic cells derived from human umbilical cord endothelial (HUVEC) and neoplastic cells of melanoma, B16F10 murine tumor. The HUVECs were provided by Dra. Dulcinea Saes Parra Abdalla, Department of Clinical and Toxicological Analyses, FCF-USP's and B16F10 murine melanoma cells, by Prof. Marcia Cominetti Department of Physiology and Molecular Biology of UFSCar. Both strains were grown in RPMI with 10% fetal calf serum. […] The preliminary investigation of the effect on angiogenesis was also made in vitro with HUVEC. The measures were undertaken to study the cell cycle by flow cytometry (propidium iodide and acridine orange) the assessment of mitochondrial activity by confocal microscopy (Mitotracker Red), and measurement of VEGF and PGE2 production by HUVEC, we performed cell culture supernatants by ELISA with commercial antibodies.

[3] = Degradation in vivo (applicant's unpublished studies)
[4] = test system: chemically induced colon tumors; assay: Chemically (MNNG) induced colon tumors in mice: tumor size, PCNA, apoptotic index, CASPASE-3; assay type: in vivo, Balb/c mice
Description: The effect of cyclodextrin-carried MDJ made in Example 3 above was studied in an experimental model of colonic cancer in mice. Apoptosis and cell proliferation, the two most important events related to tumor growth were investigated. The apoptosis and proliferation indexes of colon tumor, adjacent non-cancer tissues and normal colonic tissues were determined. Apoptosis was quantified by apoptotic nuclei counting and CASPASE-3 immunostaining, whereas proliferation was determined by PCNA immunostaining.
The animals were maintained in agreement with the guidelines of Committee on Care and Uses of Laboratory Animals of the National Research Council of the National Institutes of Health (USA). The mice were fed with food and water ad libitum and maintained on hardwood bedding under a 12-h light/dark cycle. Animals were weighed weekly during the experiments. All experiments were approved by the USP Animal Ethics Committee.
(§2) Briefly, Balb/c mice were treated by intrarectal instillations of the carcinogen N-methyl-N′-nitro-N-nitrosoguanidine (MNNG), twice a week for 2 weeks (XX), and were sacrificed 24 weeks after the beginning of the treatment. Ten days before the end of the experiment, the animals of group A (n=10) were treated with daily i.p. injections of cyclodextrin-carried MDJ (10 μL of saline solution with 1 millimolar MDJ) for every 60 grams of body weight. The animals of group B (n=10) were treated by daily intrarectal instillations of cyclodextrin-carried MDJ, at the same dosage. The group C (n=10) was treated with MNNG and with daily i.p. injections of MDJ (diluted at 10% in 100 μL of saline). The animals of the group D were treated with MNNG and by daily intrarectal instillations of MDJ, at the same dosage. The control group E was treated with MNNG alone. The control groups F and G were treated with saline and cyclodextrin-carried MDJ, i.p. and i.r, respectively. The control groups H and I received saline and MDJ, i.p. and i.r, respectively. The dosages of cyclodextrin-carried MDJ and MDJ were based on previous animal pilot studies.
Colon tumor (T), adjacent non-tumor site (NT), macroscopically normal colonic mucosa from non-tumor […] (N) in the same treatment group were obtained. Immunohistochemistry was performed to study cell proliferation by the Proliferating cellular antigen (PCNA) staining and to analyze cell apoptosis by both the apoptotic bodies counting and by the CASPASE-3 staining. Results were expressed and PCNA labeling index (PCNA-Li), Apoptotic Index (AI) and CASPASE-3 Labeling Index (CASPASE-3-Li). Standard hematology and clinical chemistry parameters were also monitored.
Apoptosis was determined by apoptotic nuclei counting. Sections were stained with hematoxylin and eosin to evaluate the number of apoptotic cells per section. The criteria used to recognize apoptotic cells were: shrunk size, loss of contact with surrounding tissues (at times forming the classically described halo) and nuclear condensation as previously described (Yu et al., Gut 2002, 51:480-484). At least 1 000 cells were counted in five random fields and the percentage of cells with apoptotic features was then calculated (apoptotic index or AI). The apoptotic nuclei counts were compared with findings obtained by CASPASE-3 immunostaining in 30 randomly selected areas. A strong correlation between apoptotic nuclei count and CASPASE-3 results was found (r=0.83, P<0.001).
Proliferation was assayed by immunoperoxidase staining for Proliferating Cell Nuclear Antigen (PCNA) as described previously. Briefly, paraffin-embedded sections from each specimen were labeled with PCNA antibody, after microwave antigen retrieval in citrate buffer. Negative controls were run by replacing the primary antibody with non-immune serum. The slides were developed in 3,3-diaminobenzidine tetrahydrochloride (DAB, Dako, Denmark) and counter-stained with Mayer haematoxylin. […]

VEGF = VEGF production by HUVEC, ELISA of culture supernatants; assay type: cell-based, human
Description: as §1

HUVEC [5] = assay: Mitochondrial activity of endothelial cells, Mitotracker Red confocal microscopy; assay type: cell-based, human; conditions: low-density plating
Description: FIGS. 15A-15F each show effect of MDJ on the mitochondrial activity of endothelial cells after 4 h of exposure in low-density plating on glass coverslips 25 mm in 24-well plates, as measured by Mitotracker red fluorescence confocal microscopy, increased 80× (40×+2× digital zoom). The calibration parameters were maintained for all measures. […] Concentrations equal to or greater than 1 mM lead to a decrease in the intensity/area of marking.
FIG. 16: Effect of MDJ on the mitochondrial activity of endothelial cells after 24 hours exposure in low-density plating on glass coverslips 25 mm in 24-well plates, as measured by Mitotracker Red fluorescence in confocal microscope, 40× magnification. The calibration parameters were maintained for all measurements, each point is the average of six independent measurements.
Cell lines used: non-neoplastic cells derived from human umbilical cord endothelial (HUVEC) and neoplastic cells of melanoma, B16F10 murine tumor. The HUVECs were provided by Dra. Dulcinea Saes Parra Abdalla, Department of Clinical and Toxicological Analyses, FCF-USP's and B16F10 murine melanoma cells, by Prof. Marcia Cominetti Department of Physiology and Molecular Biology of UFSCar. Both strains were grown in RPMI with 10% fetal calf serum. […] The preliminary investigation of the effect on angiogenesis was also made in vitro with HUVEC. […]

PGE2 = PGE2 production by HUVEC, ELISA of culture supernatants; assay type: cell-based, human; conditions: 1×10^4 cells/mL and 2×10^5 cells/mL plating
Description: as §1

HUVEC [6] = assay: MTT cytotoxicity and growth curves in endothelial cells; assay type: cell-based, human
[7] = Toxicity observations in the MNNG colon tumor study (histopathology, hematology, clinical chemistry); conditions: mouse, in vivo, ip
Description: as §2
Colon tumor (T), adjacent non-tumor site (NT), macroscopically normal colonic mucosa from non-tumor rats (N) in the same treatment group were obtained. […] Standard hematology and clinical chemistry parameters were also monitored.

CCCCCC1C(=O)CCC1CC(=O)OC (centres unmarked) [MDJ, methyl 2-(3-oxo-2-pentylcyclopentyl)acetate]
tolerability in fertilized eggs (CAM blood vessels): well tolerated by the eggs
melanoma bodies on CAM (B16F10 murine melanoma; CAM model): dose-dependent involution
survival of eggs inoculated with melanoma cells (B16F10 murine melanoma; eggs with B16F10): partially recovered this survival
toxicity (MTT, growth curves) compared with HUVEC [1]: toxic concentrations were very close
Distribution according to the phases of the cell cycle,% (18 h): Dead cells (HUVEC [2]; MDJ 1 nM): 13%
Distribution according to the phases of the cell cycle,% (18 h): G0/G1 (HUVEC [2]; MDJ 1 nM): 72%
Distribution according to the phases of the cell cycle,% (18 h): G2/S (HUVEC [2]; MDJ 1 nM): 15%
Marking with Acridine Orange,% (18 h) (HUVEC [2]; MDJ 1 nM): 6.2 ± 0.1%
Distribution according to the phases of the cell cycle,% (18 h): Dead cells (HUVEC [2]; MDJ 10 nM): 93%
Distribution according to the phases of the cell cycle,% (18 h): G0/G1 (HUVEC [2]; MDJ 10 nM): 5%
Distribution according to the phases of the cell cycle,% (18 h): G2/S (HUVEC [2]; MDJ 10 nM): 2%
Marking with Acridine Orange,% (18 h) (HUVEC [2]; MDJ 1 uM): 12 ± 0.9%
Distribution according to the phases of the cell cycle,% (18 h): Dead cells (HUVEC [2]; MDJ 10 uM): 7%
Distribution according to the phases of the cell cycle,% (18 h): G0/G1 (HUVEC [2]; MDJ 10 uM): 60%
Distribution according to the phases of the cell cycle,% (18 h): G2/S (HUVEC [2]; MDJ 10 uM): 33%
Marking with Acridine Orange,% (18 h) (HUVEC [2]; MDJ 10 uM): 9.0 ± 0.5%
Distribution according to the phases of the cell cycle,% (18 h): Dead cells (HUVEC [2]; MDJ 100 uM): 8%
Distribution according to the phases of the cell cycle,% (18 h): G0/G1 (HUVEC [2]; MDJ 100 uM): 56%
Distribution according to the phases of the cell cycle,% (18 h): G2/S (HUVEC [2]; MDJ 100 uM): 36%
Marking with Acridine Orange,% (18 h) (HUVEC [2]; MDJ 100 uM): 6.7 ± 0.3%
degradation in vivo [3]: degraded very quickly in vivo
cell proliferation and apoptosis in normal colonic mucosa and mucosa adjacent to tumors ([4]; MNNG-treated and non-MNNG animals): not associated to any significant changes in cell proliferation and apoptosis
Apoptotic Index (Tumor) ([4]; MNNG-treated mice, daily i.r.): 0.29 ± 0.04
Caspase-3-Li (tumor) ([4]; MNNG-treated mice, daily i.r.): 0.39 ± 0.11
Tumor Size ([4]; MNNG-treated mice, daily i.r. instillation): 0.56 mm^2
PCNA-Li ([4]; colonic tumors, MNNG-treated mice, daily i.r.): 0.41 ± 0.06
effect on tumor markers ([4]; i.r. administration): mild, but significant reduction in the above tumor markers
VEGF, pg/mL (2 × 10^6 cells, 4 h) (VEGF; MDJ 1 nM): 566 ± 31 pg/mL
VEGF, pg/mL (2 × 10^6 cells, 4 h) (VEGF; MDJ 10 uM): 319 ± 12 pg/mL
VEGF, pg/mL (2 × 10^6 cells, 4 h) (VEGF; MDJ 100 uM): 450 ± 30 pg/mL
concentrations leading to a decrease in the intensity/area of Mitotracker red marking (HUVEC [5]): ≥ 1 mM
PGE2 production by HUVEC (PGE2): no increase in PGE2 production
folding time (growth curves) (HUVEC [6]; HUVEC, at concentrations below 1 mM): about 20 h
concentrations at which MTT dye reduction (mitochondrial activity) was maintained at a constant value (HUVEC [6]; confluent HUVEC): less than 1 mM
tolerability of i.p. injections (groups C and H discharged) [7]: early signs or peritonitis
